*1 amine or outer side, *2 acyl side, *3 side chain or, on linkers, in order; H or OH if unused. Where a SMILES comes first, the peptide text is derived from it. Bridges are numbered along the chain shown (N, C = ends). [ ]: non-standard residue; d: D form. The star is where a group is joined. X1 = COc1cc2cc(c1Cl)N(C)C(=O)C[C@H](OC(=O)[C@H](C)N(C)C(=O)CCSSC(C)CCC(=O)*)[C@]1(C)O[C@H]1[C@H](C)[C@@H]1C[C@@](O)(NC(=O)O1)[C@H](OC)/C=C/C=C(\C)C2; 1Nal = N[C@@H](Cc1cccc2ccccc12)C(=O)O; TBMB = c1c(C[*:1])cc(C[*:3])cc1C[*:2]; Tle = CC(C)(C)[C@H](N)C(=O)O; βAla = NCCC(=O)O; Sar = CNCC(=O)O
System: MDA-MB-231 xenograft
Test: In vivo efficacy of BT1718 in MDA-MB-231 xenograft
Design: species or system Mus Musculus; key to Best response at 10 mg/kg: CR complete response; PR partial response
Protocol: The objective of this study was to evaluate the in vivo anti-tumor efficacy of BT1718in treatment of HT1080, NCI-H292, NCI-H1975, MDA-MB-231, HCC1806, RPMI2650, HCT-15, HT-29 and SNU-16 xenograft in BALB/c nude mice.
The HT1080, NCI-H292, NCI-H1975, MDA-MB-231, HCC1806, RPMI2650, HCT-15, HT-29 and SNU-16 tumor cells were maintained in vitro as a monolayer culture in medium supplemented with 10% heat inactivated fetal bovine serum at 37° C. in an […]. The tumor cells will be routinely subcultured twice weekly by trypsin-EDTA treatment. The cells growing in an exponential growth phase will be harvested and counted for tumor inoculation.
Mouse was inoculated subcutaneously at the right flank with tumor cells for tumor development. The animals were randomized and treatment was started when the average tumor reaches certain volume for the efficacy study, the inoculating cell amounts and starting tumor size were shown as below in Table 9. The test article administration and the animal numbers in each group were shown in the experimental design in Table 10.
All the procedures related to animal handling, care and the treatment in the study were performed according to the guidelines of the Association for Assessment and Accreditation of Laboratory Animal Care (AAALAC). At the time of routine monitoring, the animals were daily checked for any effects of tumor growth and treatments on normal behavior such as mobility, food and water consumption (by looking only), body weight gain/loss (body weights were measured every day), eye/hair matting and any other abnormal effect as stated in the protocol. Death and observed clinical signs were recorded on the basis of the numbers of animals within each subset.
The major endpoint was to see if the tumor growth could be delayed or mice could be cured. Tumor size was measured three times weekly in two dimensions using a caliper, and the volume was expressed in mm^3 using the formula: V=0.5 a×b^2 where a and b are the long and short diameters of the tumor, respectively. The tumor size was then used for calculations of T/C value. The T/C value (in percent) is an indication of antitumor effectiveness; T and C are the mean volumes of the treated and control groups, respectively, on a given day.
TGI was calculated for each group using the formula: TGI (%)=[1−(Ti−T0)/(Vi−V0)]×100; Ti is the average tumor volume of a treatment group on a given day, T0 is the average tumor volume of the treatment group on the day of treatment start, Vi is the average tumor volume of the vehicle control group on the same day with Ti, and V0 is the average tumor volume of the vehicle group on the day of treatment start.
Summary statistics, including mean and the standard error of the mean (SEM), are provided for the tumor volume of each group at each time point.
Statistical analysis of difference in tumor volume among the groups was conducted on the data obtained at the best therapeutic time point after the final dose.
A one-way ANOVA was performed to compare tumor volume among groups, and when a significant F-statistics (a ratio of treatment variance to the error variance) was obtained, comparisons between groups were carried out with Games-Howell test. All data were analyzed using Prism. P<0.05 was considered to be statistically significant.

[1] = MDA-MB-231, 10 mpk, biw, day 14

COc1cc2cc(c1Cl)N(C)C(=O)C[C@H](OC(=O)[C@H](C)N(C)C(=O)CCSSC(C)CCC(=O)NCCC(=O)N(C)CC(=O)N(C)CC(=O)N(C)CC(=O)N(C)CC(=O)N(C)CC(=O)N(C)CC(=O)N(C)CC(=O)N(C)CC(=O)N(C)CC(=O)N(C)CC(=O)N[C@@H](C)C(=O)N[C@H]1CSCc3cc4cc(c3)CSC[C@H](NC(=O)[C@@H](C)NC(=O)[C@H](Cc3cccc5ccccc35)NC(=O)[C@H](CCC(=O)O)NC(=O)[C@H](CC(N)=O)NC(=O)[C@@H](C)NC1=O)C(=O)N[C@@H](CCC(=O)O)C(=O)N[C@@H](CC(=O)O)C(=O)N[C@@H](Cc1ccccc1)C(=O)N[C@@H](Cc1ccc(O)cc1)C(=O)N[C@@H](CC(=O)O)C(=O)N[C@@H](C(C)(C)C)C(=O)N[C@H](C(N)=O)CSC4)[C@]1(C)O[C@H]1[C@H](C)[C@@H]1C[C@@](O)(NC(=O)O1)[C@H](OC)/C=C/C=C(\C)C2 (some centres unmarked) [BT1718] ({X1-βAla}-[Sar][Sar][Sar][Sar][Sar][Sar][Sar][Sar][Sar][Sar]AC[dA]NE[1Nal][dA]CEDFYD[Tle]C-NH2; linker 12-18-25 via TBMB (inferred))
tumor behaviour on resumed treatment (10 mg/kg biw re-treatment): slow re-growth
Body Weight (1 mpk biw, day 0): 23.4 ± 0.5 g
Tumor Volume (1 mpk biw, day 0): 187 ± 6 mm^3
Body Weight (1 mpk biw, day 2): 23.3 ± 0.6 g
Tumor Volume (1 mpk biw, day 2): 288 ± 25 mm^3
Body Weight (1 mpk biw, day 4): 23.3 ± 0.6 g
Tumor Volume (1 mpk biw, day 4): 435 ± 25 mm^3
Body Weight (1 mpk biw, day 7): 24.6 ± 0.5 g
Tumor Volume (1 mpk biw, day 7): 636 ± 53 mm^3
Body Weight (1 mpk biw, day 9): 24.6 ± 0.6 g
Tumor Volume (1 mpk biw, day 9): 822 ± 117 mm^3
Body Weight (1 mpk biw, day 11): 24.1 ± 0.1 g
Tumor Volume (1 mpk biw, day 11): 979 ± 51 mm^3
Body Weight (1 mpk biw, day 14): 24.9 ± 0.5 g
Tumor Volume (1 mpk biw, day 14): 1221 ± 62 mm^3
Body Weight (3 mpk biw, day 0): 23.0 ± 0.9 g
Tumor Volume (3 mpk biw, day 0): 187 ± 11 mm^3
Body Weight (3 mpk biw, day 2): 22.5 ± 1.0 g
Tumor Volume (3 mpk biw, day 2): 281 ± 23 mm^3
Body Weight (3 mpk biw, day 4): 22.3 ± 1.0 g
Tumor Volume (3 mpk biw, day 4): 389 ± 21 mm^3
Body Weight (3 mpk biw, day 7): 23.8 ± 1.1 g
Tumor Volume (3 mpk biw, day 7): 547 ± 38 mm^3
Body Weight (3 mpk biw, day 9): 23.8 ± 1.1 g
Tumor Volume (3 mpk biw, day 9): 729 ± 74 mm^3
Body Weight (3 mpk biw, day 11): 23.6 ± 1.1 g
Tumor Volume (3 mpk biw, day 11): 829 ± 79 mm^3
Body Weight (3 mpk biw, day 14): 23.9 ± 1.3 g
Tumor Volume (3 mpk biw, day 14): 1021 ± 65 mm^3
Body Weight (10 mpk biw, day 0): 23.3 ± 1.0 g
Tumor Volume (10 mpk biw, day 0): 187 ± 10 mm^3
Body Weight (10 mpk biw, day 2): 22.9 ± 1.3 g
Tumor Volume (10 mpk biw, day 2): 270 ± 25 mm^3
Body Weight (10 mpk biw, day 4): 22.2 ± 0.9 g
Tumor Volume (10 mpk biw, day 4): 312 ± 27 mm^3
Body Weight (10 mpk biw, day 7): 23.3 ± 1.2 g
Tumor Volume (10 mpk biw, day 7): 294 ± 31 mm^3
Body Weight (10 mpk biw, day 9): 23.0 ± 1.1 g
Tumor Volume (10 mpk biw, day 9): 248 ± 23 mm^3
Body Weight (10 mpk biw, day 11): 21.6 ± 1.0 g
Tumor Volume (10 mpk biw, day 11): 204 ± 19 mm^3
Body Weight (10 mpk biw, day 14): 24.3 ± 1.1 g
Tumor Volume (10 mpk biw, day 14): 158 ± 20 mm^3
Best response at 10 mg/kg (MDA-MB-231, 10 mg/kg): CR
TGI (MDA-MB-231, 1 mpk, biw, day 14): 7.6%
Tumor Volume (MDA-MB-231, 1 mpk, biw, day 14): 1221 ± 62 mm^3
TGI (MDA-MB-231, 3 mpk, biw, day 14): 25.5%
Tumor Volume (MDA-MB-231, 3 mpk, biw, day 14): 1021 ± 65 mm^3
TGI [1]: 102.6%
Tumor Volume [1]: 158 ± 20 mm^3
Minimally Effective Dose IV BIW (MDA-MB-231, dose leading to tumor-stasis): <10 mg/kg
dosing suspension until re-growth to 150 mm3 (after 10 mg/kg biw): 3 weeks
tumor volume after regression (after 2-3 weeks 10 mg/kg biw): below 50 mm3

Reference: patent publication US10441663B2, “Methods for treating cancer” (Bicycle Therapeutics Limited, priority 2016, dated 2019)
